We go through four compounds from article PMC3311015 (Proceedings of the Japan Academy. Series B, Physical and …, 2011).

For data set [1] the following is noted: rat; cited from earlier work.
Data set [2] addresses T1, D-amino acid oxidase (DAAO) (Rattus norvegicus, UniProt O35078).
T1 construct: Male SD rats were purchased from Charles River Japan; from tissue; host or cells: whole animal (male SD rats); DAAO activity is attributed to liver and kidney cells
Briefly: DAAO-inhibitory effect of MPC in vivo (change of plasma D-Trp concentration after MPC pretreatment). The following applies: MPC 50 mg·kg^−1 i.p. 30 min before D-Trp 100 mg·kg^−1 i.p. Also noted: species or system Male SD rats. The protocol:
(§1) Administration of Ket to rats was carried out as previously reported.[9]) Ketamine hydrochloride (Wako Pure Chemicals Co., Ltd., Osaka, Japan) was dissolved in physiological saline ([…]) and then intraperitoneally (i.p.) administered (30 mg·kg^−1) to 7-week-old rats daily for 5 consecutive days. The control animals received only saline (1 mL·kg^−1·day^−1). The rats were used for experiments 4 weeks after cessation of the ketamine or saline treatment.
D-Trp was dissolved in PBS (10 mg·mL^−1) and administered i.p. to control or Ket-treated rats (100 mg·kg^−1; n = 3–5) at 30 min after i.p. administration of MPC (50 mg·kg^−1). A heparinized syringe with a 25-gauge needle was used to draw blood (approximately 0.20 mL) from the left jugular vein 0.5, 1, 1.5, 2, 3, 4, 5, and 6 h after administration of D-Trp. The blood was treated in a similar manner as described in previous paper.[17]) Plasma D-Trp concentration was determined by our previously published HPLC method.[17])
(§2) Pharmacokinetic parameters obtained in the present study were determined by a simplex method analysis or moment analysis. Statistical analyses were performed using a one-way analysis of variance (ANOVA), followed by Bonferroni’s multiple comparison test. A p value below 0.05 was judged as a significant difference.

Data set [3] can be described thus: in vivo. Format: in vivo, Male SD rats. As to the method: as §1
A solution of MPC (5.0 or 50 mg·kg^−1·3 mL^−1) was prepared in PBS/ethanol/PEG (2.8/0.1/0.1) and was i.p. administered to rats. A heparinized syringe with a 25-gauge needle was used to draw blood (approximately 0.20 mL) from the left jugular vein at 0.083, 0.25, 0.5, 1, 2, and 3 h after administration of MPC (5.0 mg·kg^−1, n = 4), or at 0.083, 0.25, 0.5, 1, and 3 h after administration of MPC (50 mg·kg^−1, n = 5–6). Before administration of either dose of MPC, blood (approximately 0.20 mL) was obtained from each rat and used as the control. The blood was centrifuged at 3,000 g for 10 min at 4℃ to obtain plasma. The plasma was transferred to another tube and stored at −80℃ until it was analyzed.
For determining the plasma concentration of MPC, 2 calibration curves (31.25–250 µM and 200–800 µM) were constructed. Ten microliters of PBS or rat blank plasma was spiked with 10 µL of 31.25–800 µM MPC dissolved in CH3CN and 10 µL of 200 µM I.S. dissolved in CH3CN, and vigorously mixed with 70 µL of CH3CN/MeOH (50/50). In the case of plasma samples from the rats administered MPC, 10 µL of CH3CN was used instead of MPC in CH3CN.
After centrifugation at 2,500 rpm for 5 min, 50 µL of the supernatant was sampled and evaporated in vacuo. The obtained residue was dissolved in 100 µL of the mobile phase, 60 µL (31.25–250 µM) or 20 µL (200–800 µM) of the final solution after filtration with Durapore® (0.2 µm membrane, Millipore K.K., Tokyo, Japan), and was injected into the LC-MS system.
The LC-MS apparatus comprised an Agilent 1200 series HPLC (Agilent Technologies, CA, U.S.A.) and a time of flight (TOF)-MS, JMS-T100 LP AccuTOF LC-Plus, equipped with an electrospray ionization (ESI) source (JEOL Co. Ltd., Tokyo, Japan). The separation column used in this study was TSKgel ODS-80Ts QA (150 mm × 2.0 mm; i.d., 5 µm) (Tosoh Corporation, Tokyo, Japan). For the mobile phase, 0.1% HCO2H in H2O/CH3CN (95/5) was eluted isocratically at 0.16 mL·min^−1. Column temperature was maintained at 40℃. The conditions for ESI-MS detection were as follows: positive ion mode; needle voltage was set at 2,000 V; and the ring lens and orifice 1 and 2 voltages were set at 8, 49, and 4 V, respectively. Nitrogen was used as the nebulizing and desolvating gas, and the pressure was constant at 0.617 MPa. The desolvation chamber and orifice 1 temperatures were 250℃ and 80℃, respectively. The data were obtained using Mass Center software, MS-56010MP (JEOL).
as §2

For data set [4] the following is noted: rat, in vivo, 10 mg/kg; cited from earlier work.
A short description of data set [5]: in vivo. The arrangement: species or system Male SD rats. Particulars: D-Trp i.p. 100 mg·kg^−1; for AUC / Cmax / k el / half-life: male, SD, rat, in vivo, ip, 100 mg/kg; for AUC: read-out: AUC of plasma D-Trp; for Cmax: read-out: Cmax of plasma D-Trp; for k el: read-out: Ke of plasma D-Trp (converted); for half-life: read-out: t1/2 of plasma D-Trp. The protocol:
as §1
[…] A heparinized syringe with a 25-gauge needle was used to draw blood (approximately 0.20 mL) from the left jugular vein 0.5, 1, 1.5, 2, 3, 4, 5, and 6 h after administration of D-Trp. The blood was treated in a similar manner as described in previous paper.[17]) Plasma D-Trp concentration was determined by our previously published HPLC method.[17])
as §2

Another data set concerns DAAO. The arrangement: method as in PMID 20801337. The following applies: D-Trp as substrate for DAAO; cited from earlier work.
[6] abbreviates: Ket-treated rat, with pretreatment of MPC (50 mg·kg^−1).
The mark [7] stands for this setting: Ket-treated rat, without pretreatment of MPC.
Setting [8] is: control rat, with pretreatment of MPC (50 mg·kg^−1).
Where [9] appears, read: control rat, without pretreatment of MPC.

Read-outs that look alike come from different tables or passages of the source.

T1 sequence (O35078 whole entry): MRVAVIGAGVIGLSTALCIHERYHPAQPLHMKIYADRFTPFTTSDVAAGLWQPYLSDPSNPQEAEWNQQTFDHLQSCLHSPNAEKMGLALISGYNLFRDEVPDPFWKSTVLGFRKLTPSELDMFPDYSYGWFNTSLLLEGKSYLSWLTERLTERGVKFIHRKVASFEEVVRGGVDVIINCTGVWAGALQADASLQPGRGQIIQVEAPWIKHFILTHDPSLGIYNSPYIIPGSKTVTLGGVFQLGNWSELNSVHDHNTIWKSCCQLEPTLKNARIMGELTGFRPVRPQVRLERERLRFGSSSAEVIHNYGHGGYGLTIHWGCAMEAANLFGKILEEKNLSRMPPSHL

With `CNC1(c2ccccc2Cl)CCCCC1=O` (centres unmarked) [ketamine], the half-life in plasma in data set [1] was 30 to 36 min.

Regarding `NC1(c2ccccc2Cl)CCCCC1=O` (centres unmarked) [norketamine], the half-life in plasma in data set [1] is 36 to 48 min.

In the case of `Cc1cc(C(=O)O)n[nH]1` [MPC, 3-methylpyrazole-5-carboxylic acid], the results for the “plasma D-Trp concentrations after MPC pretreatment compared with no pretreatment” value in data set [2] (Ket-treated rats) and in data set [2] (control rats) were “no significant increase” and “significantly higher”, respectively. Also, the “differences in PK parameters (Cmax, t1/2, AUC) of plasma MPC between control and Ket-treated rats” value in “in vivo [3]” (MPC i.p. 5.0 mg·kg^−1) was “no remarkable differences”. The “time at which the maximum concentration (Cmax) of plasma MPC was reached” value in the data set “in vivo [3]” (MPC i.p. 5.0 mg·kg^−1, Ket-treated rats) is 0.5 h; in the data set “in vivo [3]” (MPC i.p. 5.0 mg·kg^−1, control rats), 0.5 h. Also, the “Cmax value of plasma MPC concentration in Ket-treated rats compared with control group” value in “in vivo [3]” (MPC i.p. 50 mg·kg^−1) is listed as “significantly higher”. In “in vivo [3]” (MPC i.p. 50 mg·kg^−1, p < 0.01 and p < 0.05), the “plasma MPC concentrations at 5.0 and 15 min in Ket-treated rats compared with control groups” value is listed as “significantly higher”. In addition, the “clearance (CL) of plasma MPC” value in the data set “in vivo [3]” (control rats, i.p. administration, present data) was 305 mL/min/kg; in data set [4], 3.67 mL/min/kg. For the same compound, in the data set “in vivo [3]” (male, SD, rat, in vivo, ip, control rats, i.p. administration, present data, read-out: t1/2 of plasma MPC), the half-life is 50.8 min. Moreover, the “t1/2 of plasma MPC” value in data set [4] was 335 min.

In general, AUC refers to the area under the concentration-time curve, a measure of exposure. As usually defined, the Cmax is the highest concentration seen after dosing. One may read the Km as the substrate concentration at which the rate is half of its maximum. With `N[C@H](Cc1c[nH]c2ccccc12)C(=O)O` [D-Trp, D-tryptophan], in the data set “in vivo [5]” (setting [6]), the “CL of plasma D-Trp” value was found to be 6.73 ± 1.67 mL/min/kg, the “Vd of plasma D-Trp” value was 0.544 ± 0.09 L/kg, the AUC was found to be 983 ± 128 µM·h and the Cmax is 608 ± 115 µM. Besides, in the data set “in vivo [5]” (setting [6]), the k el is 0.0002 s⁻¹ and the half-life was 60.2 ± 6.1 min. Also, in “in vivo [5]” (setting [7]), the “CL of plasma D-Trp” value came to 11.6 ± 1.83 mL/min/kg, the “Vd of plasma D-Trp” value is 0.703 ± 0.07 L/kg, the AUC came to 719 ± 63.6 µM·h and the Cmax is 587 ± 33.5 µM. In addition, in “in vivo [5]” (setting [7]), the k el is 0.000269 s⁻¹ and the half-life was 43.7 ± 2.79 min. Further, in “in vivo [5]” (setting [8]), the “CL of plasma D-Trp” value is 3.05 ± 0.17 mL/min/kg, the “Vd of plasma D-Trp” value was 0.237 ± 0.02 L/kg, the AUC turned out to be 2080 ± 138 µM·h and the maximum concentration (Cmax) worked out at 1130 ± 75 µM. In addition, in the data set “in vivo [5]” (setting [8]), the k el was 0.000214 s⁻¹ and the half-life worked out at 54 ± 0.1 min. For the same compound, in “in vivo [5]” (setting [9]), the “CL of plasma D-Trp” value came to 10 ± 0.33 mL/min/kg, the “Vd of plasma D-Trp” value came to 0.712 ± 0.04 L/kg, the AUC was found to be 693 ± 42.9 µM·h and the Cmax is 567 ± 42.6 µM. In the data set “in vivo [5]” (setting [9]), the k el is 0.000236 s⁻¹ and the half-life amounted to 49.1 ± 1.3 min. The Km in the data set on DAAO was 845 µM.
